From patent publication US20040072992A1, “Novel peptide capable of specifically acting on biological membrane” (priority 2002, published 2004)
≈ marks a conversion by molar mass, not a printed value. Read-outs that look alike come from different tables or passages of the source. Where a SMILES comes first, the peptide text is derived from it. Where no end group is shown, it is not given here.

Columns and labels:
B. subtilis IFO13722 = details: IFO13722, 18 h
B. sereus IFO3457 = details: 18 h
S. aureus IFO13276 = details: IFO13276, 18 h
S. aureus JCM2413 = details: JCM2413, 18 h
E. coli JCM1649 = details: JCM1649, 18 h
E. coli CR-3 = details: CR-3, 18 h
E. coli CE-273 = details: CE-273, 18 h
S. enteritidis ATCC1891 = details: ATCC1891, 18 h
S. enteritidis ATC14028 = details: ATC14028, 18 h
erythrocytes = details: for Hemolytic property (relative value): red cells of human

| Compound | MIC (B. subtilis IFO13722) [µM] | MIC (B. sereus IFO3457) [µM] | MIC (S. aureus IFO13276) [µM] | MIC (S. aureus JCM2413) [µM] | MIC (E. coli JCM1649) [µM] | MIC (E. coli CR-3) [µM] | MIC (E. coli CE-273) [µM] | MIC (S. enteritidis ATCC1891) [µM] | MIC (S. enteritidis ATC14028) [µM] | Hemolytic property, in words (erythrocytes) | Hemolytic property (relative value) (erythrocytes; 1 μM) [%] | Hemolytic property (relative value) (erythrocytes; 5 μM) [%] | Hemolytic property (relative value) (erythrocytes; 10 μM) [%] | Hemolytic property (relative value) (erythrocytes; 100 μM) [%] |
| --- | --- | --- | --- | --- | --- | --- | --- | --- | --- | --- | --- | --- | --- | --- |
| INWKGIAAMAKKLL [mastoparanX, INWKGIAAMAKKLL, reference compound] | 3.1 | 3.1 | 1.56 | 12.5 | 3.1 | 3.1 | 3.1 | 3.1 | 6.3 | high level of hemolytic property | 5.4 | 18.8 | 86 | 93 |
| RLAWG [Ribo-1, RLAWG] | >800 | >800 | >800 | 800 | >800 | 800 | >800 | >800 | 800 |  |  |  |  |  |
| RVGINWKGIAAMAKKII [RVG-mastX, RVG INWKGIAAMAKKII] | 50 | >200 | >200 | 200 | >200 | 50 | 50 | 100 | 200 |  |  |  |  |  |
| KNRKGIAGMAKKLLGNKWKLM [mastWR] | 50 | 50 | 50 | 50 | 50 | 25 | 12.5 | 12.5 | 25 |  |  |  |  |  |
| KVLKVLKVL [KVL3, KVLKVLKVL] | >200 | >200 | >200 | >200 | >200 | >200 | >200 | >200 | >200 |  |  |  |  |  |
| CC(C)C[C@H](NC(=O)[C@H](C)N)C(=O)N[C@@H](CCCNC(=N)N)C(=O)O [ALR] (H-Ala-Leu-Arg-OH) | >200 | >200 | >200 | >200 | >200 | >200 | >200 | >200 | >200 |  |  |  |  |  |
| KNWKGIAGMAKKLLGKNWKLM-NH2 [mast21N] | 3.1 | 3.1 | 12.5 | 12.5 | 3.1 | 3.1 | 3.1 | 6.3 | 6.3 |  |  |  |  | 13 |
| CC(C)[C@H](NC(=O)[C@@H](N)CCCCN)C(=O)NCC(=O)O [KVG] (H-Lys-Val-Gly-OH) | >800 | >800 | >800 | 800 (≈ 242 µg/mL) | >800 | 800 (≈ 242 µg/mL) | 800 (≈ 242 µg/mL) | >800 | 800 (≈ 242 µg/mL) |  |  |  |  |  |
| CC(C)[C@H](NC(=O)[C@@H](N)CCCNC(=N)N)C(=O)NCC(=O)O [RVG] (H-Arg-Val-Gly-OH) | >800 | >800 | >800 | 800 (≈ 264 µg/mL) | >800 | 800 (≈ 264 µg/mL) | 800 (≈ 264 µg/mL) | >800 | 800 (≈ 264 µg/mL) |  |  |  |  |  |
| ALRALRALRALRALR [ALR5, ALRALRALRALRALR] | 25 | 100 | 400 | 200 | 100 |  | 100 | 100 |  |  |  |  |  |  |
| KVLINWKGIAAMAKKII [KVL-mastX, KVL INWKGIAAMAKKII] | 25 | >200 | >200 | 50 | 100 | 50 | 25 | 100 | >200 |  |  |  |  |  |
| CC(C)C[C@H](NC(=O)[C@@H](NC(=O)[C@@H](N)CCCCN)C(C)C)C(=O)O [KVL] (H-Lys-Val-Leu-OH) | 800 (≈ 287 µg/mL) | 800 (≈ 287 µg/mL) | 800 (≈ 287 µg/mL) | 400 (≈ 143 µg/mL) | >800 | 800 (≈ 287 µg/mL) | 800 (≈ 287 µg/mL) | >800 | 800 (≈ 287 µg/mL) |  |  |  |  |  |
| CC(C)C[C@H](NC(=O)[C@@H](NC(=O)[C@@H](N)CCCNC(=N)N)C(C)C)C(=O)O [RVL] (H-Arg-Val-Leu-OH) | >800 | >800 | >800 | >800 | >800 | 800 (≈ 309 µg/mL) | >800 | >800 | 800 (≈ 309 µg/mL) |  |  |  |  |  |
| KVLALRL [KVL+, KVL ALRL] | >200 | >200 | >200 | >200 | >200 | >200 | 3.1 | >200 | >200 |  |  |  |  |  |
| GWALR [Ribo-2, GWALR] | >800 | >800 | >800 | 800 | >800 | 800 | >800 | 800 | 800 |  |  |  |  |  |
